# Assay results: publication PMC13147314 (The Febs Journal, 2025)
# B1: glucokinase from Pseudoalteromonas sp. AS-131 wild-type (enzyme, UniProt H7CHS4 1-332, looked up)
# chain: MSLHSSAQFDPILVADIGGTNARFALITAFDAAKNEFVIEYNHTFPSADFGSLQNATRHYLSTVPHIKPVRACLAVAGPIKAGQVHLTNLGWHFSVSEFKQAFSFLQLEVINDFAAFAYAAPYLDSNQNVVIKAGQADENSNIAVMGPGTGFGAACLVRTAQSSAVLSSEGGHISLAAVTDLDAKLLIELRKEHPHVSLETVFSGPGIAHLYKAMAAVNGITAKHLDAAQISNLANTGECEVCDATLNQFCDWLGSAAGDLALAYGALGGLFIGGGILPRMQSRLLESRFVERFSQKGIMSQYNGQVPVTLVTQDNIPLIGAAACLHNSKQE
# notes: glucokinase (PsGK) of Pseudoalteromonas sp; AS-131, UniProt H7CHS4; amplified with primers that carry the start and the stop codon and cloned into pET-16b; also called PsGK; PsGK WT; source: E. coli BL21 (DE3), purified (ammonium sulfate fractionation, anion exchange HiTrap Q HP)
# B2: glucokinase from Escherichia coli wild-type (enzyme, Escherichia coli K-12)
# chain: TKYALVGDVGGTNARLALCDIASGEISQAKTYSGLDYPSLEAVIRVYLEEHKVEVKDGCIAIACPITGDWVAMTNHTWAFSIAEMKKNLGFSHLEIINDFTAVSMAIPMLKKEHLIQFGGAEPVEGKPIAVYGAGTGLGVAHLVHVDKRWVSLPGEGGHVDFAPNSEEEAIILEILRAEIGHVSAERVLSGPGLVNLYRAIVKADNRLPENLKPKDITERALADSCTDCRRALSLFCVIMGRFGGNLALNLGTFGGVFIAGGIVPRFLEFFKASGFRAAFEDKGRFKEYVHDIPVYLIVHDNPGLLGSGAHLRQTLGHIL
# notes: glucokinase (EcGK) of Escherichia coli K-12, encoded by glk, UniProt P0A6V8; the gene was amplified from genomic DNA and cloned into pET-16b; also called EcGK; EcGK WT; source: E. coli BL21 (DE3), purified (ammonium sulfate fractionation, anion exchange HiTrap Q HP)
# Key:
# PsGK = molecular target: T1, PsGK (Pseudoalteromonas sp. AS-131, UniProt H7CHS4, C325S); assay: G6PD-coupled NADPH assay at […] nm, Lineweaver-Burk; assay type: biochemical; conditions: 1, 25 and 40 °C
# T1 construct: gene glk; full length, cloned in pET-16b, expressed in E. coli BL21 (DE3), purified by ammonium sulfate and anion exchange (no tag mentioned); about 35 kDa subunit, 79 kDa homodimer by gel filtration
# EcGK = molecular target: T2, EcGK (Escherichia coli, UniProt P0A6V8); assay: G6PD-coupled NADPH assay at […] nm, Lineweaver-Burk; assay type: biochemical; conditions: 25 °C, pH 7.6, 20 mM Tris-HCl, 10 mM MgCl2, co-substrate glucose, 1 mM DTT; also measured at 1 and 40 °C
# T2 construct: gene glk; full length, cloned in pET-16b, expressed in E. coli BL21 (DE3), purified by ammonium sulfate and anion exchange (no tag mentioned); about 35 kDa subunit, 59 kDa homodimer by gel filtration
# T2 sequence (P0A6V8 2-321): B2 chain
# [1] = molecular target: the molecule itself; assay: SEC; gel filtration on HiLoad 16/60 Superdex 200 prep grade; molecular weights estimated and compared with about 35 kDa by SDS/PAGE; monomers to dimer
# purified protein = substrate: Nc1ncnc2c1ncn2[C@@H]1O[C@H](COP(=O)(O)OP(=O)(O)OP(=O)(O)O)[C@@H](O)[C@H]1O; assay: purified protein; assay type: biochemical, Pseudoalteromonas sp. AS-131; conditions: 25 °C, pH 7.6, 20 mM Tris-HCl, 10 mM MgCl2, co-substrate glucose, 1 mM DTT, also measured at 1 and 40 °C
# T1 sequence (H7CHS4 entry or part of it C325S): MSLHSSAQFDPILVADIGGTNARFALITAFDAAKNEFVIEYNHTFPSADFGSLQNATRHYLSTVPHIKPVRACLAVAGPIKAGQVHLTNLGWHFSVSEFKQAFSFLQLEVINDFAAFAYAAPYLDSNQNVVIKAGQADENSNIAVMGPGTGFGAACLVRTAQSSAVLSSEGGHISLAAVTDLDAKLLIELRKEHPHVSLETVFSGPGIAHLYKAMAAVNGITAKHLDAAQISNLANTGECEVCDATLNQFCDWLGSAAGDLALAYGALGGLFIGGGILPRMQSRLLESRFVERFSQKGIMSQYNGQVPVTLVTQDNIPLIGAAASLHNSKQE
molecule,measurement,setting,value
OC[C@H]1OC(O)[C@H](O)[C@@H](O)[C@@H]1O (stereo partly drawn) [glucose],K m,"PsGK; pH 7.6, 10 mM MgCl2, co-substrate ATP",the catalytic efficiency (k cat/K m) of C325S exceeded that of WT
Nc1ncnc2c1ncn2[C@@H]1O[C@H](COP(=O)(O)OP(=O)(O)OP(=O)(O)O)[C@@H](O)[C@H]1O [ATP],K m,EcGK,1110 ± 80 µM
same,K m,"PsGK; pH 7.6, 10 mM MgCl2, co-substrate glucose",the catalytic efficiency (k cat/K m) of C325S exceeded that of WT
B1,stoichiometry N,[1],2
same,Km,purified protein,1550 ± 170 µM
B2,stoichiometry N,[1],2
